In ChEMBL document CHEMBL5614393, “Thioamides in medicinal chemistry and as small molecule therapeutic agents” (Eur J Med Chem, 2024):
≈ marks a conversion by molar mass, not a printed value.

Columns and labels:
MCF7 [1] = assay: Cytotoxicity against human MCF7 cells assessed as reduction in cell viability incubated for 48 hrs by MTT assay; type: functional, cell-based; details: MCF7, 48 h
SiHa = assay: Antiproliferative activity against human SiHa cells overexpressing PHGDH assessed as reduction in cell growth; type: functional, cell-based
HL-60 = assay: Antiproliferative activity against human HL-60 cells overexpressing PHGDH assessed as reduction in cell growth; type: functional, cell-based
MDA-MB-231 [2] = assay: Antiproliferative activity against human MDA-MB-231 cells overexpressing PHGDH assessed as reduction in cell growth; type: functional, cell-based
HepG2 [3] = assay: Antiproliferative activity against human HepG2 cells; type: functional, cell-based
MCF7 [4] = assay: Antiproliferative activity against human MCF7 cells; type: functional, cell-based
MDA-MB-231 [5] = assay: Antiproliferative activity against human MDA-MB-231 cells; type: functional, cell-based
HCT-116 [6] = assay: Antiproliferative activity against human HCT-116 cells; type: functional, cell-based
[7] = molecular target: T1, NAD-dependent protein deacetylase sirtuin-2 (Homo sapiens, UniProt Q8IXJ6); assay: Inhibition of C-terminal His-tagged SIRT2 (50 to 356 residues) (unknown origin) using Ac-Glu-Thr-Asp-Lys(Myr)-AMC as substrate by fluorescence based analysis
T1 sequence (Q8IXJ6 whole entry): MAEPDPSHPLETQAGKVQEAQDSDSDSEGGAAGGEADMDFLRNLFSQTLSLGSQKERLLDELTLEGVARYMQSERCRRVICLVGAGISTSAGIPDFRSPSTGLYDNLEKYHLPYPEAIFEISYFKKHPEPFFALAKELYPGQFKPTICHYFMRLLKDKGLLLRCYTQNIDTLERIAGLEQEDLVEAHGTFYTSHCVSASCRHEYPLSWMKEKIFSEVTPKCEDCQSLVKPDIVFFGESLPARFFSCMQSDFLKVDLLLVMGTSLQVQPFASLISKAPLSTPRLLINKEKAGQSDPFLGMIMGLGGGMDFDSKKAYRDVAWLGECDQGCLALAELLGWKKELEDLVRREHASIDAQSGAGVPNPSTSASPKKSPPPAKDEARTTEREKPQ

[8] = Half life in mouse; type: ADME, organism-based; details: in vivo
[9] = molecular target: NAD-dependent protein deacetylase sirtuin-1 (Homo sapiens, UniProt Q96EB6); assay: Inhibition of SIRT1 (unknown origin)
[10] = molecular target: T1, NAD-dependent protein deacetylase sirtuin-2; assay: Inhibition of SIRT2 (unknown origin)
[11] = molecular target: NAD-dependent protein deacetylase sirtuin-3, mitochondrial (Homo sapiens, UniProt Q9NTG7); assay: Inhibition of SIRT3 (unknown origin)
[12] = molecular target: NAD-dependent protein deacylase sirtuin-5, mitochondrial (Homo sapiens, UniProt Q9NXA8); assay: Inhibition of SIRT5 (unknown origin)
[13] = Antioxidant activity assessed as DPPH radical scavenging activity; type: functional
Carbonic anhydrase 1 = Carbonic anhydrase 1 (Homo sapiens, UniProt P00915); assay: Inhibition of human carbonic anhydrase I
Carbonic anhydrase 2 = Carbonic anhydrase 2 (Homo sapiens, UniProt P00918); assay: Inhibition of human carbonic anhydrase II
[14] = Inhibition of urease (unknown origin)
SARS-CoV-2 = assay: Antiviral activity against SARS-CoV-2 infected in African green monkey Vero E6 cells incubated for 48 hrs by plaque reduction assay; type: functional, organism-based; details: Severe acute respiratory syndrome coronavirus 2, Vero C1008, 48 h
Pseudomonas aeruginosa = assay: Antibacterial activity against Pseudomonas aeruginosa ATCC 9027 assessed as reduction in bacterial cell growth incubated for 16 hrs by CLSI-based Mueller-Hinton broth dilution method; type: functional
Staphylococcus aureus = assay: Antibacterial activity against Staphylococcus aureus ATCC 6538 assessed as reduction in bacterial cell growth incubated for 16 hrs by CLSI-based Mueller-Hinton broth dilution method; type: functional
[15] = test system: Staphylococcus epidermidis; assay: Antibacterial activity against Staphylococcus epidermidis ATCC 12228 assessed as reduction in bacterial cell growth incubated for 16 hrs by CLSI-based Mueller-Hinton broth dilution method; type: functional
HCT-116 [16] = assay: Cytotoxicity against human HCT-116 cells assessed as reduction in cell growth incubated for 24 hrs by MTT assay; type: functional, cell-based; details: HCT-116, 24 h
MCF7 [17] = assay: Cytotoxicity against human MCF7 cells assessed as reduction in cell growth incubated for 24 hrs by MTT assay; type: functional, cell-based; details: MCF7, 24 h
MCF7 [18] = assay: Cytotoxicity against human MCF7 cells assessed as reduction in cell growth by MTT colorimetric assay; type: functional, cell-based
HepG2 [19] = assay: Cytotoxicity against human HepG2 cells assessed as reduction in cell growth by MTT colorimetric assay; type: functional, cell-based
PC-3 = assay: Cytotoxicity against human PC-3 cells assessed as reduction in cell growth by MTT colorimetric assay; type: functional, cell-based
[20] = AUClast in mouse at 40 mg/kg, ip; type: ADME, organism-based; details: in vivo
HCT-116 [21] = assay: Growth inhibition of human HCT-116 cells by SRB assay; type: functional
[22] = molecular target: Epidermal growth factor receptor (Homo sapiens, UniProt P00533); assay: Inhibition of EGFR (unknown origin)
A549 = assay: Cytotoxicity against human A549 cells assessed as reduction in cell viability incubated for 24 hrs by MTT assay; type: functional, cell-based; details: A549, 24 h
HeLa = assay: Cytotoxicity against human HeLa cells assessed as reduction in cell viability incubated for 24 hrs by MTT assay; type: functional, cell-based
Homo sapiens = species: Homo sapiens; assay: Inhibition of NOS (unknown origin) at 15.6 uM relative to control

Chain of NAD-dependent protein deacylase sirtuin-5, mitochondrial (Q9NXA8 whole entry): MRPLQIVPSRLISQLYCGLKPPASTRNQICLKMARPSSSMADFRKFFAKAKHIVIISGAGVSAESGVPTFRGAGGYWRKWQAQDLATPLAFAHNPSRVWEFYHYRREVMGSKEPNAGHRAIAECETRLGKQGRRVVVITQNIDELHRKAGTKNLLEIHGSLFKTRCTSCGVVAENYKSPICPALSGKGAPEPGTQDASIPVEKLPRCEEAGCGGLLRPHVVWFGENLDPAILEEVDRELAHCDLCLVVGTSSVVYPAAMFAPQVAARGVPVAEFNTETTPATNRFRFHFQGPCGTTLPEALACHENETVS
Chain of NAD-dependent protein deacetylase sirtuin-3, mitochondrial (Q9NTG7 whole entry): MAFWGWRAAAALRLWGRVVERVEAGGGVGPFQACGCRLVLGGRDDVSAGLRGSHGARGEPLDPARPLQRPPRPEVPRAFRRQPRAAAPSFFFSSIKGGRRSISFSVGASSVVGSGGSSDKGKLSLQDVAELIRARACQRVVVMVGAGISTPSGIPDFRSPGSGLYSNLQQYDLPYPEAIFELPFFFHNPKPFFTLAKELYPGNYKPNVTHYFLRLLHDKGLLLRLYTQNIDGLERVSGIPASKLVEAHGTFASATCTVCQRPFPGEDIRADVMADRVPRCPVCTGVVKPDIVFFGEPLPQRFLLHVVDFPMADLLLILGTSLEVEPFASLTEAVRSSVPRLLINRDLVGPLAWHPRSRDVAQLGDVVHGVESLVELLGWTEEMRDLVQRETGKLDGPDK
Chain of Carbonic anhydrase 1 (P00915 whole entry): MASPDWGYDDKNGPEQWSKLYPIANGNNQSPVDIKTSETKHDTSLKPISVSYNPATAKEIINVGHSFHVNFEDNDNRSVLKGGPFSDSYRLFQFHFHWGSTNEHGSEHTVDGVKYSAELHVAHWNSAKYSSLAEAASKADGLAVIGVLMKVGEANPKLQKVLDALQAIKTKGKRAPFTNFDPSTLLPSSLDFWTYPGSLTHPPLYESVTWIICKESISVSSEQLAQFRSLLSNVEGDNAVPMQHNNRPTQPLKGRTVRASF
Chain of NAD-dependent protein deacetylase sirtuin-1 (Q96EB6 whole entry): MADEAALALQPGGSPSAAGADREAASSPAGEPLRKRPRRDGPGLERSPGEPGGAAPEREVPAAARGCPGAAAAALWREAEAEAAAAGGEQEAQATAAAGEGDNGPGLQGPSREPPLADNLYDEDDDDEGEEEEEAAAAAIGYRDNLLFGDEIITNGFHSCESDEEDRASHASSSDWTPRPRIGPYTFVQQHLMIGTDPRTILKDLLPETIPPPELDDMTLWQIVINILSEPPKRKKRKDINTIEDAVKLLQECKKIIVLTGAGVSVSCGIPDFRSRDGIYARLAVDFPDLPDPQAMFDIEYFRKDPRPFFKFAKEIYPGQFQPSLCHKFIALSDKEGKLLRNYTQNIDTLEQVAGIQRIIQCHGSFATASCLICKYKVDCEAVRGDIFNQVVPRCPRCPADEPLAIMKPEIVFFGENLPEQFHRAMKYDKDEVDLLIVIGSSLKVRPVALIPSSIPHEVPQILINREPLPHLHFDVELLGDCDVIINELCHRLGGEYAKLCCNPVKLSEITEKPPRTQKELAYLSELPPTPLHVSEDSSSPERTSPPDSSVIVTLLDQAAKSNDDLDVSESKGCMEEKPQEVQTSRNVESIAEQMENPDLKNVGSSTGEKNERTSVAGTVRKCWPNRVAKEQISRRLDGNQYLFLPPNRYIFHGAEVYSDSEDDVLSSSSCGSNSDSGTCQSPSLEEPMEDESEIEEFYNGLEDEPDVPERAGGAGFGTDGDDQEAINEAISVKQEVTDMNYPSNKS
Chain of Epidermal growth factor receptor (P00533 whole entry): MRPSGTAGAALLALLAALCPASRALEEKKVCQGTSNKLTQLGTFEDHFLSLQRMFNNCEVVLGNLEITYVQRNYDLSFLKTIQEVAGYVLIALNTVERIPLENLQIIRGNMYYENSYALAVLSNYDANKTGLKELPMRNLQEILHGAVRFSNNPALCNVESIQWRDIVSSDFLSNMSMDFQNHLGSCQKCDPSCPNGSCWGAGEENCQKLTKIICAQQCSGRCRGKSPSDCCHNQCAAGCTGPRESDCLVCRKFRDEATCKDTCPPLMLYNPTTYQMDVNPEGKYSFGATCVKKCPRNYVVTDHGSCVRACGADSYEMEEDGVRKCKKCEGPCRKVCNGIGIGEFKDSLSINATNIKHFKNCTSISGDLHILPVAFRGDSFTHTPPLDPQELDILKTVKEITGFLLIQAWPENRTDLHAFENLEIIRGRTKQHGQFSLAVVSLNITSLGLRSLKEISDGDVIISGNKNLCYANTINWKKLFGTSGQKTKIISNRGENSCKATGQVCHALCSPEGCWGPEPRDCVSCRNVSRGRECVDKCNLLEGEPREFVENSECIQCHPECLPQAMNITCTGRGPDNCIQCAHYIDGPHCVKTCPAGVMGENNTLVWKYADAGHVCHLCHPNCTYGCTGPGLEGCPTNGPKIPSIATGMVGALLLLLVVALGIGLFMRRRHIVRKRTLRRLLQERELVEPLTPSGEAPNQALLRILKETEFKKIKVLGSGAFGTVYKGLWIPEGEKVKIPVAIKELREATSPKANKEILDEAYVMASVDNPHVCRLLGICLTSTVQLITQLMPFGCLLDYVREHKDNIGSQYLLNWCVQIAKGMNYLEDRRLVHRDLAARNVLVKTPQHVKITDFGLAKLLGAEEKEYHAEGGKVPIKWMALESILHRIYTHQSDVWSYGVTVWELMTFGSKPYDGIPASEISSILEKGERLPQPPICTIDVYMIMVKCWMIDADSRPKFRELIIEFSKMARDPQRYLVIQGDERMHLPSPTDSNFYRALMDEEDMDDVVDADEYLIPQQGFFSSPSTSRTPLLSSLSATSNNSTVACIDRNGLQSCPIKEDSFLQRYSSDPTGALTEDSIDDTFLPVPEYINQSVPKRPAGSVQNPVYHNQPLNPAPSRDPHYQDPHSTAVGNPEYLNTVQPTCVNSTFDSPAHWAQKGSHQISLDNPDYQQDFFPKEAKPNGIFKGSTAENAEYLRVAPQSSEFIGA

For `NC(=S)N1N=C(c2ccc(Cl)cc2)CC1/C=C/c1ccccc1` (configuration not stated), the IC50 (MCF7 [1]) was 7.18 µM.
In the case of `O=C(C(=S)N1CCOCC1)c1ccc(Cl)cc1`, the IC50 (SiHa) is reported as 6.6 µM, the IC50 (HL-60) is reported as 15.5 µM and the IC50 (MDA-MB-231 [2]) is reported as over 100 µM.
For `COc1ccc(C2=NN(C(N)=S)C(c3ccc(Cl)cc3)C2)cc1` (configuration not stated), the IC50 (HepG2 [3]) was 6.08 µM, the IC50 (MCF7 [4]) was 9.37 µM and the IC50 (MDA-MB-231 [5]) was 8.5 µM. The IC50 (HCT-116 [6]) was 5.89 µM.
With `CCCCCCCCCCCCCC(=S)NCCCC[C@H](NS(C)(=O)=O)C(=O)N[C@H](C)C(=O)NCCCCNC(=N)N` the IC50 [7] was 0.09 µM and the half-life [8] was over 2 h.
Molecule `CCCCCCCCCCCCCC(=O)NCCCCC(NC(=O)OCc1ccccc1)C(=O)Nc1ccccc1` (configuration not stated) has an IC50 [9] of over 200 µM, an IC50 [10] of over 200 µM and an IC50 [11] of over 200 µM. The IC50 [12] was over 200 µM.
`NC(=O)N1N=C(c2ccc(Cl)cc2)CC1/C=C/c1ccccc1` (configuration not stated) gave an IC50 (MCF7 [1]) of 15.1 µM.
With `CN(C)c1ccc(C2CC(c3cccs3)=NN2C(N)=S)cc1` (configuration not stated) the IC50 [13] was 632 ng/mL (≈ 1910 nM).
`CCCCCCCCCCCCNC(=S)NCCCC[C@H](NS(C)(=O)=O)C(=O)N[C@H](C)C(=O)NCCCCNC(=N)N` showed an IC50 [7] of 0.1 µM and a half-life [8] of under 2 h.
With `COc1ccc(-c2cc(-c3ccc(N)cc3)nn2C(N)=S)cc1OC` the IC50 (Carbonic anhydrase 1) was 0.00513 µM and the IC50 (Carbonic anhydrase 2) was 0.0205 µM.
Work on `O=C(O)c1cn(C2CC2)c2cc(N3CCN(C(=S)c4ccc([N+](=O)[O-])cc4)CC3)c(F)cc2c1=O` yielded an IC50 [14] of 2.05 µM.
`COc1cc(-c2cc(-c3ccc(N)cc3)nn2C(N)=S)cc(OC)c1OC` gave an IC50 (Carbonic anhydrase 1) of 0.0122 µM.
`COc1ccc(F)c2[nH]c(C(=O)N[C@@H](CC(C)C)C(=O)N[C@@H](C[C@@H]3CCNC3=O)C(=O)c3nc4c(F)cccc4s3)cc12` gave an EC50 (SARS-CoV-2) of 0.29 µM.
With `COc1ccc(C2=NN(C(N)=O)C(/C=C/c3ccccc3)C2)cc1` (configuration not stated) the IC50 (MCF7 [1]) was 37.7 µM.
`O=C(O)c1cn(C2CC2)c2cc(N3CCN(C(=S)c4cccc(F)c4)CC3)c(F)cc2c1=O` showed an MIC50 (Pseudomonas aeruginosa) of under 3 ng/mL, an MIC50 (Staphylococcus aureus) of under 3 ng/mL and an MIC50 [15] of under 3 ng/mL. The IC50 [14] was 4.08 µM.
`Cc1cccc(C)c1NC(=S)N1CCc2ccccc2C1` gave an IC50 [14] of 11.2 µM.
Molecule `CCCCCCCCCCCCCC(=S)NCCCCC(NC(=O)OCc1ccccc1)C(=O)Nc1ccccc1` (configuration not stated) has an IC50 [11] of over 200 µM and an IC50 [12] of over 200 µM.
Work on `Cc1cc(C)c2c(n1)nn1c(C)c(C(=S)Nc3ccccc3)nnc21` yielded an IC50 (HCT-116 [16]) of 12.6 µM and an IC50 (MCF7 [17]) of 11.7 µM.
In the case of `COc1ccc2ccc3c(c2c1)C(c1c(F)cccc1F)C(C(N)=S)=C(N)O3` (configuration not stated), the IC50 (MCF7 [18]) is reported as 5.4 µM, the IC50 (HepG2 [19]) is reported as 4.5 µM and the IC50 (PC-3) is reported as 1.1 µM.
With `COc1ccc(NC(=S)N2CCc3ccccc3C2)cc1` the IC50 [14] was 11.2 µM.
Molecule `COc1ccc(C2=NN(C(N)=S)C(/C=C/c3ccccc3)C2)cc1` (configuration not stated) has an IC50 (MCF7 [1]) of 22.4 µM.
`COc1ccc(F)c2[nH]c(C(=O)N[C@@H](CC(C)C)C(=S)N[C@@H](C[C@@H]3CCNC3=O)C(=O)c3nc4c(F)cccc4s3)cc12` showed an EC50 (SARS-CoV-2) of 0.34 µM.
With `NC(=O)N1N=C(c2ccccc2)CC1/C=C/c1ccccc1` (configuration not stated) the IC50 (MCF7 [1]) was 19.1 µM.
Molecule `Cc1cc(C)nc(NC(=S)N2CCN(Cc3ccc(C(F)(F)F)cc3)CC2)c1` has an IC50 (MDA-MB-231 [2]) of 8 µM and an AUClast [20] of 147 µg·h/mL.
Work on `FC(F)(F)c1ccc(NC(=S)N2CCc3ccccc3C2)cc1` yielded an IC50 [14] of 11.2 µM.
In the case of `COc1cc(C2CC(c3ccccc3)=NN2C(N)=S)cc(OC)c1OC` (configuration not stated), the GI50 (HCT-116 [21]) is reported as 0.15 µM.
Molecule `COc1cccc2[nH]c(C(=O)N[C@@H](CC(C)C)C(=O)N[C@@H](C[C@@H]3CCNC3=O)C(=O)c3nc4ccccc4s3)cc12` has an EC50 (SARS-CoV-2) of 0.29 µM.
`NC(=S)N1N=C(c2ccccc2)CC1/C=C/c1ccccc1` (configuration not stated) showed an IC50 (MCF7 [1]) of 4.53 µM and an IC50 [22] of 0.34 µM.
Work on `CN(C)c1ccc(C2CC(c3ccc(Cl)cc3)=NN2C(N)=S)cc1` (configuration not stated) yielded an IC50 (A549) of 13.5 µM and an IC50 (HeLa) of 17.5 µM.
Molecule `CC(C)(C)[C@H](NC(=O)C(F)(F)F)C(=O)N1C[C@H]2[C@@H]([C@H]1C(=O)N[C@H](C#N)C[C@H]1CCNC1=O)C2(C)C` has an EC50 (SARS-CoV-2) of 0.94 µM.
`O=C(O)c1cn(C2CC2)c2cc(N3CCN(C(=S)c4cccc([N+](=O)[O-])c4)CC3)c(F)cc2c1=O` gave an IC50 [14] of 5.87 µM.
`O=[N+]([O-])c1ccc(N2CCN(C(=S)NCc3nc4ccccc4s3)CC2)cc1` showed an inhibition (Homo sapiens) of 67%.
